# Where a name gives a salt, the structure may show the parent alone.
# What was measured:
# H1 receptor = molecular target: T1, H1 receptor (Cavia porcellus, UniProt P31389); assay: H1 Receptor Binding Inhibition Test ([3H]mepyramin, guinea pig cerebromembranous protein); settings: read-out: H1 receptor dissociation constant (KD)
# T1 construct: guinea pig cerebromembranous protein and a test compound; from tissue; host or cells: guinea pig brain membranes
# Experimental: H1 Receptor Binding Inhibition Test
# An ice-cold phosphate buffer was added to terminate the reaction, followed by immediate filtration through a Wattman CF/C filter. The filter was washed twice with 20 ml aliquots of the ice-cold buffer. The radio-activity of the residue was measured by a liquid scintillation counter. From a measurement value obtained without the addition of the test compound and measurements values obtained upon addition of the test compound at various concentrations, the dose-response of the inhibitory action of the test compound was measured and the 50% inhibitory concentration (IC50) was determined. Using the Cheng-Prusoff formula, a dissociation constant (KD) was calculated from the 50% inhibitory concentration (IC50).
# In a binding assay, 10^4 M R(-)dimethindene was used for the measurement of a nonspecific binding.
# LTD4 receptor = molecular target: T2, LTD4 receptor (Cavia porcellus, UniProt Q2NNR5); assay: LTD4 Receptor Binding Inhibition Test ([3H]LTD4, guinea pig pulmomembranous protein); settings: read-out: LTD4 receptor dissociation constant (KD)
# T2 construct: guinea pig pulm-omembranous protein and a test compound; from tissue; host or cells: guinea pig lung membranes
# T2 sequence (Q2NNR5 1-340): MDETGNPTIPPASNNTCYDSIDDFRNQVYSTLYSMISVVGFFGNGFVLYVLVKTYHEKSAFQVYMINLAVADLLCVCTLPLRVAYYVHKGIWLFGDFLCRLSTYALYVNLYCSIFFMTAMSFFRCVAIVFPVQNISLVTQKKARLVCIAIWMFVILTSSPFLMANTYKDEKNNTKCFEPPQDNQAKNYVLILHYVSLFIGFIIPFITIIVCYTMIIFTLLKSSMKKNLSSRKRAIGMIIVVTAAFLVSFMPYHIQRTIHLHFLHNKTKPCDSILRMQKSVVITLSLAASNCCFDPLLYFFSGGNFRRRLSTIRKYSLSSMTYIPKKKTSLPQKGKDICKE
# Experimental: LTD4 Receptor Binding Inhibition Test
# An ice-cold tris hydrochloride/sodium chloride buffer (10 mM/100 mM, pH 7.5) was added to terminate the reaction, followed by immediate filtration through a Wattman CF/C filter. The filter was washed twice with 20 ml aliquots of the ice-cold buffer. The radioactivity of the residue was measured by a liquid scintillation counter.
# In a binding assay, […] LTD4 was used for the measurement of a nonspecific binding.
# [1] = molecular target: T3, isolated guinea pig ileum (Cavia porcellus, UniProt Q2NNR5); assay: Anti-LTD4 action on isolated guinea pig ileum (LTD4 contraction); format: cell-based; settings: 10^-5 M test compound; contraction caused by 10^-8 M LTD4; read-out: Anti-LTD4 action (inhibition rate)
# T3 construct: An isolated guinea pig ileum was cut into about 2 cm lengths; from tissue; host or cells: guinea pig ileum
# T3 sequence (Q2NNR5 1-340): T2 sequence (Q2NNR5 1-340)
# Experimental: Antihistaminic Action and Anti-LTD4 Action (In vitro Tests)
# An isolated guinea pig ileum was cut into about 2 cm lengths. Each ileum piece was suspended in a 20-ml container filled with the Tyrode's buffer. An isotonic contractive response by histamine or LTD4 was recorded on a recorder. The Tyrode's buffer was controlled at 30° C., through which a mixed gas (95%O2 -5%CO2) was bubbled.
# T1 sequence (P31389 whole entry): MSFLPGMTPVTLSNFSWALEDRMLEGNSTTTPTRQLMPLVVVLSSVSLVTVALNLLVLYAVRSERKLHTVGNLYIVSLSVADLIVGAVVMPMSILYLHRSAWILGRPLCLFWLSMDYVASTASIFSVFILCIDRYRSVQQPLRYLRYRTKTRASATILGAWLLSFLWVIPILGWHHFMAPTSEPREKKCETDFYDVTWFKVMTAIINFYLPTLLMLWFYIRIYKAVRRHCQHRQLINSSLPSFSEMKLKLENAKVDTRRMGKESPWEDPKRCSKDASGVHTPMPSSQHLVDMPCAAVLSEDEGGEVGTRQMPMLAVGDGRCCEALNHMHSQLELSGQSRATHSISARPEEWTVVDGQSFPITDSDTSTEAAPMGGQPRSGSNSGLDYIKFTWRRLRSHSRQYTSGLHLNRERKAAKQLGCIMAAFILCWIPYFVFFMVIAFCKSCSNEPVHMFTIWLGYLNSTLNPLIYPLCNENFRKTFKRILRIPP
Structure (SMILES),Ki (H1 receptor),Ki (LTD4 receptor),inhibition at 10 µM [1]
"O=C1CCc2cccc(OCCCCN3CCN(Cc4ccc5ccccc5n4)CC3)c2N1 [Example 44, 8-{4-[4-(2-Quinolylmethyl)-1-piperazinyl]butoxy}-1,2,3,4-tetrahydroquinolin-2-one]",,,47%
"O=C1CCc2ccc(OCCN3CCCN(Cc4ccc5ccccc5n4)CC3)cc2N1 [Example 81, 7-{2-[4-(2-Quinolylmethyl)-1-homopiperazinyl]ethoxy}-1,2,3,4-tetrahydroquinolin-2-one]",,,19%
"O=C1CCc2cccc(OCCCCN3CCCN(Cc4ccc5ccccc5n4)CC3)c2N1 [Example 89, 8-{4-[4-(2-Quinolylmethyl)-1-homopiperazinyl]butoxy}-1,2,3,4-tetrahydroquinolin-2-one]",,,21%
"O=C1CSc2cc(OCCCN3CCN(C(=O)c4ccc5ccccc5n4)CC3)ccc2N1 [Example 102, 7-{3-[4-(2-quinolylcarbonyl)piperazinyl]propoxy}-3,4-dihydro-2H-1,4-benzothiazin-3-one maleate]",,,10%
"Cn1c(CN2CCCN(CCOc3ccc4ccc(=O)[nH]c4c3)CC2)nc2ccccc21 [Example 80, 7-{2-[4-(N-Methylbenzoimidazol-2-ylmethyl)-1-homopiperazinyl]ethoxy)-1,2-dihydroquinolin-2-one]",4.31 nM,18.4 µM,11%
"O=c1ccc2ccc(OCCCN3CCN(Cc4ccc5ccccc5n4)CC3)cc2[nH]1 [Example 36, 7-{3-[4-(2-Quinolylmethyl)-1-piperazinyl]propoxy}-1,2-dihydroquinolin-2-one]",0.00349 nM,1.99 µM,46%
"O=c1ccc2ccc(OCCN3CCCN(Cc4ccc5ccccc5n4)CC3)cc2[nH]1 [Example 79, 7-{2-[4-(2-Quinolylmethyl)-1-homopiperazinyl]ethoxy}-1,2-dihydroquinolin-2-one]",75.9 nM,8.61 µM,19%
"CCOCCn1c(CN2CCCN(CCCOc3ccc4c(c3)SCC(=O)N4)CC2)nc2ccccc21 [Example 83, 7-{3-[4-(N-Ethoxyethylbenzoimidazol-2-ylmethyl)-1-homopiperazinyl]-propoxy}-3,4-dihydro-2H-1,4-benzothiazin-3-one]",,,26%
"Cn1c(CN2CCCN(CCOc3ccc4c(c3)CCC(=O)N4)CC2)nc2ccccc21 [Example 75, 6-{2-[4-(N-Methylbenzoimidazol-2-ylmethyl)-1-homopiperazinyl]ethoxy}-1,2,3,4-tetrahydroquinolin-2-one]",55.8 nM,7.34 µM,
"CC1(C)C(=O)Nc2cc(OCCCCCN3CCN(Cc4ccc5ccccc5n4)CC3)ccc21 [Example 42, 3,3-Dimethyl-6-{5-[4-(2-quinolylmethyl)-1-piperazinyl]pentyloxy}-2,3-dihydro-1H-indol-2-one]",,,13%
"Cn1c(CN2CCCN(CCOc3ccc4[nH]c(=O)ccc4c3)CC2)nc2ccccc21 [Example 77, 6-{2-[4-(N-Methylbenzoimidazol-2-ylmethyl)-1-homopiperazinyl]ethoxy}-1,2-dihydroquinolin-2-one]",74.5 nM,110 µM,
"O=c1ccc2ccc(OCCN3CCN(Cc4ccc5ccccc5n4)CC3)cc2[nH]1 [Example 39, 7-{2-[4-(2-Quinolylmethyl)-1-piperazinyl]ethoxy}-1,2-dihydroquinolin-2-one]",,,30%
"O=C1CCc2ccc(OCCN3CCN(Cc4ccc5ccccc5n4)CC3)cc2N1 [Example 32, 7-{2-[4-(2-Quinolylmethyl)-1-piperazinyl]ethoxy}-1,2,3,4-tetrahydroquinolin-2-one]",,,20%

# Continued, values first:
Ki (H1 receptor),Ki (LTD4 receptor),inhibition at 10 µM [1],Structure (SMILES)
457 nM,8.6 µM,,"CC1(C)C(=O)Nc2ccc(OCCN3CCCN(Cc4ccc5ccccc5n4)CC3)cc21 [Example 50, 3,3-dimethyl-5-{2-[4-(2-quinolylmethyl)-1-homopiperazinyl]ethoxy}-2,3-dihydro-1H-indol-2-one dimaleate]"
4.32 nM,3.83 µM,,"CC1(C)C(=O)Nc2cccc(OCCCN3CCN(Cc4ccc5ccccc5n4)CC3)c21 [Example 41, 3,3-Dimethyl-4-{3-[4-(2-quinolylmethyl)-1-piperazinyl]propoxy}-2,3-dihydro-1H-indol-2-one]"
5.45 nM,8.73 µM,,"Cc1ccc(OCCCN2CCCN(Cc3ccc4ccccc4n3)CC2)c2c1NC(=O)CC2 [Example 60, 8-Methyl-5-{3-[4-(2-quinolylmethyl)-1-homopiperazinyl]propoxy}-1,2,3,4-tetrahydroquinolin-2-one]"
,,48%,"CC1(C)C(=O)Nc2c(OCCCN3CCN(Cc4ccc5ccccc5n4)CC3)cccc21 [Example 29, 3,3-Dimethyl-7-{3-[4-(2-quinolylmethyl)-1-piperazinyl]propoxy}-2,3-dihydro-1H-indol-2-one]"
0.249 nM,881 µM,,"Cc1ccc(OCCN2CCCN(Cc3ccc4ccccc4n3)CC2)c2c1NC(=O)C2(C)C [Example 54, 3,3,7-Trimethyl-4-{2-[4-(2-quinolylmethyl)-1-homopiperazinyl]ethoxy}-2,3-dihydro-1H-indol-2-one]"
173 nM,3.24 µM,16%,"CC1(C)C(=O)Nc2ccc(OCCN3CCN(Cc4ccc5ccccc5n4)CC3)cc21 [Example 1, 3,3-dimethyl-5-{2-[4-(2-quinolylmethyl)-1-piperazinyl]ethoxy}-2,3-dihydro-1H-indol-2-one]"
4.69 nM,1.61 µM,19%,"Cc1ccc(OCCN2CCCN(Cc3ccc4ccccc4n3)CC2)c2c1NC(=O)CC2 [Example 61, 8-Methyl-5-{2-[4-(2-quinolylmethyl)-1-homopiperazinyl]ethoxy}-1,2,3,4-tetrahydroquinolin-2-one]"
13.5 nM,49.6 µM,40%,"Cc1ccc(OCCCCCN2CCN(Cc3ccc4ccccc4n3)CC2)c2c1NC(=O)C2(C)C [Example 9, 3,3,7-Trimethyl-4-{5-[4-(2-quinolylmethyl)-1-piperazinyl]pentyloxy}-2,3-dihydro-1H-indol-2-one]"
187 nM,15.9 µM,,"Cc1ccc(OCCCN2CCCN(Cc3ccc4ccccc4n3)CC2)c2c1NC(=O)C2(C)C [Example 97, 3,3,7-Trimethyl-4-{3-[4-(2-quinolylmethyl)-1-homopiperazinyl]propoxy}-2,3-dihydro-1H-indol-2-one]"
,,25%,"CC1(C)C(=O)Nc2c(OCCCN3CCCN(Cc4ccc5ccccc5n4)CC3)cccc21 [Example 69, 3,3-Dimethyl-7-{3-[4-(2-quinolylmethyl)-1-homopiperazinyl]propoxy}-2,3-dihydro-1H-indol-2-one]"
18.3 nM,35.7 µM,21%,"CC1(C)C(=O)Nc2cccc(OCCCN3CCCN(Cc4ccc5ccccc5n4)CC3)c21 [Example 85, 3,3-Dimethyl-4-{3-[4-(2-quinolylmethyl)-1-homopiperazinyl]propoxy}-2,3-dihydro-1H-indol-2-one]"
18.2 nM,7.43 µM,27%,"CC1(C)C(=O)Nc2cc(OCCCN3CCCN(Cc4ccc5ccccc5n4)CC3)ccc21 [Example 78, 3,3-Dimethyl-6-{3-[4-(2-quinolylmethyl)-1-homopiperazinyl]propoxy}-2,3-dihydro-1H-indol-2-one]"
,,12%,"O=C1CCc2cccc(OCCCN3CCCN(Cc4ccc5ccccc5n4)CC3)c2N1 [Example 88, 8-{3-[4-(2-Quinolylmethyl)-1-homopiperazinyl]propoxy}-1,2,3,4-tetrahydroquinolin-2-one]"
3.39 nM,1.98 µM,,"O=C1CCc2cccc(OCCCN3CCN(Cc4ccc5ccccc5n4)CC3)c2N1 [Example 45, 8-{3-[4-(2-Quinolylmethyl)-1-piperazinyl]propoxy)-1,2,3,4-tetrahydroquinolin-2-one]"
36.3 nM,3.34 µM,27%,"Cc1ccc(OCCCN2CCN(Cc3nc4ccccc4n3C)CC2)c2c1NC(=O)C2(C)C [Example 26, 3,3,7-Trimethyl-4-{3-[4-(N-methylbenzoimidazol-2-ylmethyl)-1-piperazinyl]propoxy}-2,3-dihydro-1H-indol-2-one]"
71 nM,5.9 µM,,"Cc1ccc(OCCN2CCN(Cc3ccc4ccccc4n3)CC2)c2c1NC(=O)C2(C)C [Example 93, 3,3,7-Trimethyl-4-{2-[4-(2-quinolylmethyl)-1-piperazinyl]ethoxy}-2,3-dihydro-1H-indol-2-one]"
